Usually melting point stands for the temperature, or range, at which the solid turns liquid.

Turning to `CC1OC[C@H](C)n2c1nc1c(N)nc3ccccc3c12` (stereo partly drawn) [Example 1, (11S)-8,11-Dimethyl-10,11-dihydro-8H-[1,4]oxazino[4′,3′:1,2]imidazo[4,5-c]quinolin-6-amine], the melting point lay in the range of 218 to 223 °C. For `CCCC1OC[C@H](C)n2c1nc1c(N)nc3ccccc3c12` (stereo partly drawn) [Example 2, (11S)-1-Methyl-8-propyl-10,11-dihydro-8H-[1,4]oxazino[4′,3′:1,2]imidazo[4,5-c]quinolin-6-amine] the value was 243 to 268 °C.

(Values after patent publication US7906506B2, “Substituted chiral fused [1,2] imidazo [4,5-c] ring compounds and methods” (3M Innovative Properties Company, priority 2006, dated 2011).)
